Data on two molecules can be found in ChEMBL document CHEMBL4842368, “Berotralstat (BCX7353): Structure-Guided Design of a Potent, Selective, and Oral Plasma Kallikrein Inhibitor to Prevent Attacks of Hereditary Angioedema (HAE)” (J Med Chem, 2021).

The structures appear in SMILES notation. ≈ marks a conversion by molar mass, not a printed value. Some results are limits rather than exact numbers.

Data set [1] can be described thus: Oral bioavailability in monkey at 25 mg/kg. Format: ADME, organism-based, Macaca mulatta. Conditions: rhesus monkey, in vivo.
Data set [2] is described as follows: AUC(0 to 96 hrs) in rat at 30 mg/kg, po. The data set is classed as ADME, organism-based. Also on record: time < 96 hr, route oral, dose 30 mg/kg. Conditions: in vivo.
A further data set addresses Prothrombin (Homo sapiens, UniProt P00734). Kind of data set: Inhibition of human thrombin using Nalpha-Benzoyl-Phe-Val-Arg p-nitroaniline as substrate measured after 5 mins by plate reader analysis.
A short description of data set [3]: Tmax in monkey at 25 mg/kg, po. The data set is classed as ADME, organism-based, Macaca mulatta. Conditions: rhesus monkey, in vivo.
The nature of data set [4]: AUC(0 to 24 hrs) in rat at 30 mg/kg, po. The data set is classed as ADME, organism-based. More on the design: time < 24 hr, route oral, dose 30 mg/kg. The following applies: in vivo.
A short description of data set [5]: Tmax in rat at 30 mg/kg, po. Format: ADME, organism-based. Conditions: in vivo.
The nature of data set [6]: Clearance in rat at 30 mg/kg, po. Conditions: in vivo. Format: ADME, organism-based.
The target of another data set is Trypsin (Homo sapiens, UniProt P07477+P07478+P35030). As to the kind of experiment: Inhibition of human trypsin using Nalpha-Benzoyl-L-Arginine p-nitroaniline as substrate measured after 5 mins by plate reader analysis. Format: protein assay.
Data set [7] is described as follows: AUC in rat at 10 mg/kg, po after 24 hrs. The data set is classed as ADME, organism-based. More on the design: route oral, time 24 hrs, dose 10 mg/kg. Conditions: in vivo.
Data set [8] can be described thus: Half life in monkey at 25 mg/kg, po. Format: ADME, organism-based, Macaca mulatta. The following applies: rhesus monkey, in vivo.
The next data set has as its target Coagulation factor X (Homo sapiens, UniProt P00742). As to the kind of experiment: Inhibition of human factor 10a using N-a-Benzyloxycarbonyl-D-arginyl-L-glycyl-L-arginine-pnitroaniline-dihydrochloride as substrate measured after 5 mins by plate reader analysis.
A short description of data set [9]: Cmax in rat at 10 mg/kg, po. Conditions: in vivo. More on the design: route oral, dose 10 mg/kg. Format: ADME, organism-based.
The nature of data set [10]: Half life in monkey at 2.5 mg/kg, iv. The data set is classed as ADME, organism-based, Macaca mulatta. The following applies: rhesus monkey, in vivo.
The nature of data set [11]: AUC(0 to 24 hrs) in monkey at 2.5 mg/kg, iv. Format: ADME, organism-based, Macaca mulatta. The following applies: rhesus monkey, in vivo. Also on record: time < 24 hr, route intravenous, dose 2.5 mg/kg.
Data set [12] is described as follows: AUC(0 to 96 hrs) in rat at 3 mg/kg, iv. Conditions: in vivo. More on the design: time < 96 hr, route intravenous, dose 3 mg/kg. The data set is classed as ADME, organism-based.
The nature of data set [13]: Cmax in monkey at 2.5 mg/kg, iv. Format: ADME, organism-based, Macaca mulatta. Also on record: route intravenous, dose 2.5 mg/kg. Conditions: rhesus monkey, in vivo.
Data set [14] is described as follows: AUC(0 to 24 hrs) in rat at 3 mg/kg, iv. Format: ADME, organism-based. More on the design: time < 24 hr, route intravenous, dose 3 mg/kg. Conditions: in vivo.
Data set [15] addresses Tissue-type plasminogen activator (Homo sapiens, UniProt P00750). Kind of data set: Inhibition of recombinant human tPA using H-D-Isoleucyl-L-prolyl-L-arginine p-nitroaniline dihydrochloride as substrate measured after 5 mins by plate reader analysis.
Data set [16] is described as follows: Half life in rat at 30 mg/kg, po. The data set is classed as ADME, organism-based. The following applies: in vivo.
Another data set addresses T1, Coagulation factor XII (Homo sapiens, UniProt P00748).
T1 sequence (P00748 whole entry): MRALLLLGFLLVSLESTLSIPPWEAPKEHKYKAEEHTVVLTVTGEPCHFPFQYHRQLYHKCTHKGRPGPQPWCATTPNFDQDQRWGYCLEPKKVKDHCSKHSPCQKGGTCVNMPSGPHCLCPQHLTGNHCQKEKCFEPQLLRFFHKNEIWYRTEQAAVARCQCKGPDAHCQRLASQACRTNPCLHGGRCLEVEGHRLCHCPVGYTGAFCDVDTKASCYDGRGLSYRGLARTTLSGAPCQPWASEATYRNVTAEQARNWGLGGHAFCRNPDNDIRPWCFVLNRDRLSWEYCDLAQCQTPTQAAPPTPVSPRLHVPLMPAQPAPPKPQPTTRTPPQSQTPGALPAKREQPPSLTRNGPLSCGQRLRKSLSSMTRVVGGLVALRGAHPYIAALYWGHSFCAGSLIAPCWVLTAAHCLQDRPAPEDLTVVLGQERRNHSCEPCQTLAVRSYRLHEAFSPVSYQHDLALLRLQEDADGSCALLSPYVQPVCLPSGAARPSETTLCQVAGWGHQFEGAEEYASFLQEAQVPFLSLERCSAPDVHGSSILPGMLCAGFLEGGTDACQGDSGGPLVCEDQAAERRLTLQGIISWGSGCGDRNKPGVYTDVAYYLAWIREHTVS
As to the kind of experiment: Inhibition of human factor 12a using D-prolyl-L-phenylalanyl-L-arginine-p-nitroaniline as substrate measured after 5 mins by plate reader analysis.

Data set [17] can be described thus: Solubility of compound at pH 7. Format: physicochemical. Conditions: buffer.
A short description of data set [18]: Solubility of compound at pH 4. Conditions: buffer. The data set is classed as physicochemical.
Data set [19] in a line: Cmax in monkey at 25 mg/kg, po. More on the design: route oral, dose 25 mg/kg. Format: ADME, organism-based, Macaca mulatta. The following applies: rhesus monkey, in vivo.
Data set [20] in a line: Clearance in monkey at 2.5 mg/kg, iv. The data set is classed as ADME, organism-based, Macaca mulatta. Conditions: rhesus monkey, in vivo.
Another data set deals with Plasminogen (Homo sapiens, UniProt P00747). Kind of data set: Inhibition of human plasmin using Z-Lys-SBzl as substrate measured immediately by plate reader analysis.
Data set [21] is described as follows: Clearance in monkey at 25 mg/kg, po. The data set is classed as ADME, organism-based, Macaca mulatta. The following applies: rhesus monkey, in vivo.
Data set [22] in a line: Half life in rat at 3 mg/kg, iv. The following applies: in vivo. The data set is classed as ADME, organism-based.
Data set [23] can be described thus: Cmax in rat at 3 mg/kg, iv. The data set is classed as ADME, organism-based. Also on record: route intravenous, dose 3 mg/kg. The following applies: in vivo.
The target of data set [24] is T2, Complement C1s subcomponent (Homo sapiens, UniProt P09871).
T2 sequence (P09871 whole entry): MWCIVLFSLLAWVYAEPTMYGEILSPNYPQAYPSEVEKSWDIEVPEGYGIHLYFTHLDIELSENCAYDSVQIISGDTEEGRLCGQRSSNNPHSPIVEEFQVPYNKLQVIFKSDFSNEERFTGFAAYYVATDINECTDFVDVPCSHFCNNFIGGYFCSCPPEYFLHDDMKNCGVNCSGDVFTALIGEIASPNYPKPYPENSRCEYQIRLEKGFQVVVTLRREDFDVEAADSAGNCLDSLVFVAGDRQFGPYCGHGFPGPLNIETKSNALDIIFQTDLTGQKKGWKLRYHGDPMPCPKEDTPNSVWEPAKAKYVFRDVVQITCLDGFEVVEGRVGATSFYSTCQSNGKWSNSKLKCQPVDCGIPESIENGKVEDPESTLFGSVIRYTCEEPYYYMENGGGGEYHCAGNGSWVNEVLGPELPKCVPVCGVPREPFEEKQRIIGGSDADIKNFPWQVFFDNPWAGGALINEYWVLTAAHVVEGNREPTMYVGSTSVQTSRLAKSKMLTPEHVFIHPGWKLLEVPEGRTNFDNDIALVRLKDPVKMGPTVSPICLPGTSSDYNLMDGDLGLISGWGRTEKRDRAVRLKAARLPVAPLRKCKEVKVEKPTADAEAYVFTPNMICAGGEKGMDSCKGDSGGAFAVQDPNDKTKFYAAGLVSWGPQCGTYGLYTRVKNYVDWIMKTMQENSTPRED
Kind of data set: Inhibition of human C1s using […] as substrate measured immediately by plate reader analysis.

Data set [25] is described as follows: Clearance in rat at 3 mg/kg, iv. Format: ADME, organism-based. Conditions: in vivo.
Data set [26] can be described thus: Cmax in rat at 30 mg/kg, po. Format: ADME, organism-based. Also on record: route oral, dose 30 mg/kg. Conditions: in vivo.
Data set [27] in a line: AUC(0 to 24 hrs) in monkey at 25 mg/kg, po. Format: ADME, organism-based, Macaca mulatta. Also on record: time < 24 hr, route oral, dose 25 mg/kg. Conditions: rhesus monkey, in vivo.
A short description of data set [28]: Oral bioavailability in rat at 30 mg/kg. Format: ADME, organism-based. Conditions: in vivo.
For the next data set, the species on record is Homo sapiens. Kind of data set: Selectivity index, ratio of IC50 for human trypsin to IC50 for human plasma kallikrein.
Another data set addresses Plasma kallikrein (Homo sapiens, UniProt P03952). As to the kind of experiment: Inhibition of purified human plasma kallikrein assessed as inhibition constant using H-D-Pro-Phe-Arg-pNA.2HCl as substrate measured after 3 mins by microplate reader analysis.

Chain of Coagulation factor X (P00742 41-179 limits assumed): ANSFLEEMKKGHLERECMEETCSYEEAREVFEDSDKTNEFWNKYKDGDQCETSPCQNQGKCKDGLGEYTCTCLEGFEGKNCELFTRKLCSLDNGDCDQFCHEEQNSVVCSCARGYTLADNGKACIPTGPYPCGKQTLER
Chain of Coagulation factor X (P00742 235-488 limits assumed): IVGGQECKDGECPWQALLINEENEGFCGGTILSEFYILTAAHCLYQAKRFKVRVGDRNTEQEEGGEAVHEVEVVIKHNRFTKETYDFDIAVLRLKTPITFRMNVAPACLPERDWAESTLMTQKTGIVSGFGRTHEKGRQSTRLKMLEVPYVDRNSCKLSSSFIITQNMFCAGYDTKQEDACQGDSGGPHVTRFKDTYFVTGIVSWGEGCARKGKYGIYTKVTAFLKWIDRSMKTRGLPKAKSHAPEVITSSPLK
Chain of Plasma kallikrein (P03952 20-390 limits assumed): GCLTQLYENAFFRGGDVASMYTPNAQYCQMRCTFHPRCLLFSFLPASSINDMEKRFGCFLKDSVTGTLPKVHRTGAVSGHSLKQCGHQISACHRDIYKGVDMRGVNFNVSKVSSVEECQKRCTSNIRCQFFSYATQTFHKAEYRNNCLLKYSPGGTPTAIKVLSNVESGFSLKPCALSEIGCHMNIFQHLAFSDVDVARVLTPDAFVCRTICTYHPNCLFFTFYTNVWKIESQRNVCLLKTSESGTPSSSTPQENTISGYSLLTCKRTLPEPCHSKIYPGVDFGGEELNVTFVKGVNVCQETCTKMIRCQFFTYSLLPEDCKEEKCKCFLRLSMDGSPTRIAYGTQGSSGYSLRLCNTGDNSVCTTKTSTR
Chain of Plasma kallikrein (P03952 391-638 limits assumed): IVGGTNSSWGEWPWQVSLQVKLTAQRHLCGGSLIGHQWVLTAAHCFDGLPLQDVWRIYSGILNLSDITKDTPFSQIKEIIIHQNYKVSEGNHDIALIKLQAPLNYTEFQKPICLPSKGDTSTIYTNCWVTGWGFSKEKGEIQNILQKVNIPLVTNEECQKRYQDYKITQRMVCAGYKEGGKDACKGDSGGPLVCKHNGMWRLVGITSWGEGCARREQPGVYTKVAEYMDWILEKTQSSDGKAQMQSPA
Chain of Tissue-type plasminogen activator (P00750 whole entry): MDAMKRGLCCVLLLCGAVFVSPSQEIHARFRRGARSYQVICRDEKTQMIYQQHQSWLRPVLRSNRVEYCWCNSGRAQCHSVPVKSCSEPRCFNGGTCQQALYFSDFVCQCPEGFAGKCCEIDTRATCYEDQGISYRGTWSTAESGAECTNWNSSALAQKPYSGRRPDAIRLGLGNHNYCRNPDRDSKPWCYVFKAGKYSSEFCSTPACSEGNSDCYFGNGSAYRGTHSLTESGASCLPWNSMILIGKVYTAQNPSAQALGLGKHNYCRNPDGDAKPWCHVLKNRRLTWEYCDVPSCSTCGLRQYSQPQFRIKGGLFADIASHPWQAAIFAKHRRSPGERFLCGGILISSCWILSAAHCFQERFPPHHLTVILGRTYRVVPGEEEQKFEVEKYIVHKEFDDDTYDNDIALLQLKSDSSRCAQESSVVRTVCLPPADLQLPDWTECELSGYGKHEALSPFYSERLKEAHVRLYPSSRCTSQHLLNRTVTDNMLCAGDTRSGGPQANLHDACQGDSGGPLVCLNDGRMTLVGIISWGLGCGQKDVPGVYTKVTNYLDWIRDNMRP
Chain of Plasminogen (P00747 97-580 limits assumed): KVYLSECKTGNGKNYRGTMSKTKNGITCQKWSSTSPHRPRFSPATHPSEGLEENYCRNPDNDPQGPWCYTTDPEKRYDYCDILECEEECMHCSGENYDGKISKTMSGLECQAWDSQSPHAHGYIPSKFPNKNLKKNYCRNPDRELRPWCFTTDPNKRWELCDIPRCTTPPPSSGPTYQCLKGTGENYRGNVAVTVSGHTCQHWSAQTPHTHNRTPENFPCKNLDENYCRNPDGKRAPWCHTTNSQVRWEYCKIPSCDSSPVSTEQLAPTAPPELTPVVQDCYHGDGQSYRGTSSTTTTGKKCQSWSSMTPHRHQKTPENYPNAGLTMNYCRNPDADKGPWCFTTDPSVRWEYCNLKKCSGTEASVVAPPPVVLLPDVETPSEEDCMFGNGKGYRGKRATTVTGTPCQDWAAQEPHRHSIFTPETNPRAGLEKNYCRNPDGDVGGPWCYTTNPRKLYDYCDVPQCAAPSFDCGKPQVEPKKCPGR
Chain of Plasminogen (P00747 581-810 limits assumed): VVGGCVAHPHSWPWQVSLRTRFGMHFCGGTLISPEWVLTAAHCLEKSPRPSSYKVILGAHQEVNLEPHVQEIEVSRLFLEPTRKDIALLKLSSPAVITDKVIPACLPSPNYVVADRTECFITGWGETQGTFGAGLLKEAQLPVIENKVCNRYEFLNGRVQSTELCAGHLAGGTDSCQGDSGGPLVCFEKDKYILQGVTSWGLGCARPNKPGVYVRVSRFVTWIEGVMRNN

Usually bioavailability stands for dose-corrected exposure relative to a reference, in per cent. The term AUC(0-t) denotes exposure summed from dosing to a finite time, without extrapolation to infinity. What is called IC50 is the concentration at which inhibition is half-maximal. In general, Tmax refers to the time from dosing to the highest level. A word on the CL/F: it is clearance divided by bioavailability, as obtained after extravascular dosing. In general, AUC refers to the area under the concentration-time curve, a measure of exposure. Broadly, the half-life is how long it takes for the measured level to halve. By Cmax is commonly meant the highest concentration seen after dosing. In general, solubility refers to how much of the substance goes into solution per volume. The term clearance denotes the rate of elimination divided by the concentration. `N#Cc1cccc([C@@H](NCC2CC2)c2ccc(F)c(NC(=O)c3cc(C(F)(F)F)nn3-c3cccc(CN)c3)c2)c1` (stereo in doubt) [BEROTRALSTAT]: the bioavailability came to 45% in [1] and 33% in [28]. Also, the AUC(0-t) at 96 h in data set [2] was 6180 ng·h/mL; in data set [12] it was 1860 ng·h/mL. The IC50 against Prothrombin was > 50 µM; on Trypsin it was 11 µM; on Coagulation factor X it was > 50 µM; in [15], > 50 µM; at Coagulation factor XII it was > 50 µM; against Plasminogen it was 3.97 µM. For the same molecule, the IC50 in data set [24] was > 50 µM. Besides, the Tmax was 4.7 h in [3] and 2 h in data set [5]. In addition, the AUC(0-t) at 24 h was 4780 ng·h/mL in data set [4], 974 ng·h/mL in data set [11], 1620 ng·h/mL in data set [14] and 4150 ng·h/mL in data set [27]. For the same molecule, the CL/F turned out to be 81 mL/min/kg in data set [6] and 73 mL/min/kg in [21]. This molecule also showed an AUC at 24 h in data set [7] of 2210 ng·h/mL. In addition, the half-life in data set [8] was 22.7 h; in data set [10], 18.3 h; in [16], 18.5 h; in data set [22] it was 10.1 h. The Cmax was 242 ng/mL in data set [9]; 673 ng/mL in [13]; 342 ng/mL in [19]; 773 ng/mL in data set [23]; 475 ng/mL in data set [26]. The solubility came to 160 µg/mL (≈ 284 µM) in data set [17] and 120 µg/mL (≈ 213 µM) in data set [18]. The clearance is 30 mL/min/kg in data set [20] and 27 mL/min/kg in [25].

Broadly, the Ki is a dissociation constant, usually derived from enzyme kinetics or from competition with a known ligand. Turning to `C=Cc1cc(C(=O)Nc2ccc(C(=N)N)cc2)c(-c2ccc(C(=O)NCC3CC3)nc2C(=O)O)cc1OC` [AVORALSTAT], the Ratio IC50 in the data set listed under Homo sapiens was 8192. On Plasma kallikrein, the Ki was determined as 0.00026 µM. For the same molecule, the solubility in data set [17] was 1090 µg/mL (≈ 2120 µM); in data set [18], 47000 µg/mL (≈ 91500 µM).
